Experimental data taken from patent US20100113550A1, “New Crystal Forms” (BIAL - PORTELA AND CA, S.A., priority 2006, published 2010).
Like-named read-outs stand apart in the source and are kept apart here.

Key:
Assay type in all cases: physicochemical
[1] = Approximate solubilities (solvent added until a solution forms)
Excerpt: Approximate solubilities of compound 1, Form A in aqueous mixtures containing high concentrations of organic solvents are given in Table 1. [table]

[2] = RH stability: storage at controlled relative humidity or drying, checked by XRPD and for deliquescence
Excerpt: Form A samples were stored at lower relative humidities of approximately 9-11, 23 and 32% RH and analyzed by XRPD and Karl-Fischer titration analysis after four weeks (Tables 30 and 31). The samples appeared to be Form A by XRPD. […] Note that the water content in the samples at 23 and 32% RH was slightly higher compared to the initial batch of Form A.
Form X samples were stored at relative humidities of approximately 43, 75 and 90% RH and analyzed by XRPD and Karl-Fischer titration analysis after five weeks (Tables 34 and 35).

[3] = Coulometric Karl Fischer titration for water determination
Procedure: Coulometric Karl Fischer (KF) analysis for water determination was performed using a Mettler Toledo DL39 Karl Fischer titrator. Samples were placed in the KF titration vessel containing approximately Hydranal—Coulomat AD and mixed for 60 seconds to ensure dissolution. The sample was then titrated by means of a generator electrode which produces iodine by electrochemical oxidation: 2I−=>I2+2e. Three replicates were obtained to ensure reproducibility. A NIST-traceable water standard (Hydranal Water Standard 10.0) was analyzed to check the operation of the coulometer. Data were collected and analyzed using LabX Pro Titration v2.10.000.

[4] = RH stability: storage at controlled relative humidity or drying, checked by XRPD and for deliquescence; remark: listed apart in the source
[5] = Interconversion studies of Forms A and C (slurries, XRPD)
Procedure: A slurry of compound 1, Form A, was prepared in a given solvent and loaded on an orbit shaker at either ambient or elevated temperature for at least 1 day. The liquid phase of the slurry was drawn off with a pipette and filtered through a 0.2-μm filter. A slurry containing compound 1 forms A and C was prepared using the filtered liquid phase from the Form A slurry. The mixture was then loaded on an orbit shaker in a sealed vial at either ambient or elevated temperature for 1 or 7 days. The solids were isolated by vacuum filtration or by drawing the liquid phase off with a pipette and allowing the solids to air dry at ambient conditions prior to analysis. The resulting Forms were characterised by XRPD.

[6] = acetone:water 99:1, hydrochloride

Cl.NCCc1c[nH]c(=S)n1[C@H]1COc2c(F)cc(F)cc2C1 [Amorphous, (R)-5-(2-Aminoethyl)-1-(6,8-difluorochroman-3-yl)-1,3-dihydroimidazole-2-thione hydrochloride]
solubility ([1]; 2,2,2-trifluoroethanol, 50 °C, organic solvent or mixture, 2,2,2-trifluoroethanol, 50° C., read-out: Solubility (approximate) at elevated temperature): 8 mg/mL
Solubility (approximate) ([1]; 2,2,2-trifluoroethanol, hydrochloride): 8 mg/mL
Solubility (approximate) ([1]; acetone, hydrochloride): 49 mg/mL
Solubility (approximate) ([1]; acetonitrile): <1 mg/mL
Solubility compared with the other forms (in words) ([1]; comparison between forms, listed as Amorphous material, hydrochloride): higher solubilities in most organic solvents and water compared to Forms A, B, and C
solubility ([1]; ethanol, 53 °C, organic solvent or mixture, ethanol, 53° C., read-out: Solubility (approximate) at elevated temperature): 11 mg/mL
Solubility (approximate) ([1]; ethanol, hydrochloride): 10 mg/mL
Solubility (approximate) ([1]; ethyl acetate): <1 mg/mL
Solubility (approximate) ([1]; iso-propanol, hydrochloride): 16 mg/mL
Solubility (approximate) ([1]; methanol, hydrochloride): 50 mg/mL
Solubility (approximate) ([1]; methyl ethyl ketone, hydrochloride): 64 mg/mL
solubility ([1]; methyl iso-butyl ketone, organic solvent or mixture, methyl iso-butyl ketone, read-out: Solubility (approximate)): < 1 mg/mL
Solubility (approximate) ([1]; tetrahydrofuran (THF), hydrochloride): 100 mg/mL
Solubility (approximate) ([1]; water, hydrochloride): 36 mg/mL

Cl.NCCc1c[nH]c(=S)n1[C@H]1COc2c(F)cc(F)cc2C1 [Form B, (R)-5-(2-Aminoethyl)-1-(6,8-difluorochroman-3-yl)-1,3-dihydroimidazole-2-thione hydrochloride]
Solubility (approximate) [1, 6]: <29 mg/mL
Solubility (approximate) ([1]; acetone, hydrochloride): 2 mg/mL
Solubility (approximate) ([1]; acetonitrile:water 95:5, hydrochloride): <27 mg/mL
Solubility (approximate) ([1]; ethanol:water 99:1, hydrochloride): <28 mg/mL
Solubility (approximate) ([1]; ethanol, hydrochloride): 4 mg/mL
Solubility (approximate) ([1]; methanol, hydrochloride): 15 mg/mL
Solubility by kind of solvent (in words) ([1]; organic solvents and aqueous mixtures, hydrochloride): higher solubilities in aqueous solvent mixtures compared to organic solvents
Stability under high relative humidities ([2]; high relative humidities, long periods of time): remain stable
Change in the water content on storage ([3]; after 2 days, 3 weeks and 8 weeks at both 75 and 90% RH): No significant changes
% water ([3]; ~55% RH, 8 days): 5.34%
Moles of water ([3]; ~55% RH, 8 days): 1.1 mol
% water ([3]; ~75% RH, 3 weeks): 6.02%
Moles of water ([3]; ~75% RH, 3 weeks): 1.24 mol
% water ([3]; ~75% RH, 8 weeks): 6.12%
Moles of water ([3]; ~75% RH, 8 weeks): 1.26 mol
% water ([3]; ~75% RH, 2 days): 6.23%
Moles of water ([3]; ~75% RH, 2 days): 1.28 mol
% water ([3]; ~90% RH, 3 weeks): 5.99%
Moles of water ([3]; ~90% RH, 3 weeks): 1.23 mol
% water ([3]; ~90% RH, 8 weeks): 6.46%
Moles of water ([3]; ~90% RH, 8 weeks): 1.33 mol
% water ([3]; ~90% RH, 2 days): 6.70%
Moles of water ([3]; ~90% RH, 2 days): 1.39 mol
Stability at relative humidity ([4]; 90% relative humidity): stable
Deliquescence ([4]; 90% relative humidity, after 10 days): no deliquescence was observed
RH stability, XRPD patterns ([4]; after 2 days, 3, 7 and 8 weeks at both 75 and 90% RH): did not change
Form conversion upon desorption (drying) ([4]; drying): convert back to Form A
Weight change ([4]; ~55% RH, 8 days): 10.7 mg
Weight change, % ([4]; ~55% RH, 8 days): 9.5%
Observations ([4]; ~55% RH, 8 days (Table 32)): looks dry
Observations ([4]; ~55% RH, 8 days (Table 33)): looks dry
Observations ([4]; ~75% RH, 3 weeks (Table 32)): looks dry
Observations ([4]; ~75% RH, 3 weeks (Table 33)): looks dry
Observations ([4]; ~75% RH, 7 weeks): looks dry
Observations ([4]; ~75% RH, 8 weeks (Table 32)): looks dry
Observations ([4]; ~75% RH, 8 weeks (Table 33)): looks dry
Weight change ([4]; ~75% RH, 2 days): 11.0 mg
Weight change, % ([4]; ~75% RH, 2 days): 4.5%
Observations ([4]; ~90% RH, 3 weeks (Table 32)): looks dry
Observations ([4]; ~90% RH, 3 weeks (Table 33)): looks dry
Observations ([4]; ~90% RH, 7 weeks): looks dry
Observations ([4]; ~90% RH, 8 weeks (Table 32)): looks dry
Observations ([4]; ~90% RH, 8 weeks (Table 33)): looks dry
Weight change ([4]; ~90% RH, 2 days): 11.6 mg
Weight change, % ([4]; ~90% RH, 2 days): 4.6%

Cl.NCCc1c[nH]c(=S)n1[C@H]1COc2c(F)cc(F)cc2C1 [Forms A and C, (R)-5-(2-Aminoethyl)-1-(6,8-difluorochroman-3-yl)-1,3-dihydroimidazole-2-thione hydrochloride]
Form resulting from interconversion slurry ([5]; 1-day slurries at room temperature, ethanol and acetone:water 99:1): mixture of Forms C and B, with Form B as a minor component
Form resulting from interconversion slurry ([5]; acetone:water 99:1, 40° C., 1-day slurry): mixture of Forms C and A, with Form A as a minor component
Form resulting from interconversion slurry ([5]; after one week, ambient temperature and 40° C.): Form C
Form resulting from interconversion slurry ([5]; ethanol, 40° C., 1-day slurry): Form C

Cl.NCCc1c[nH]c(=S)n1[C@H]1COc2c(F)cc(F)cc2C1 [Form X, (R)-5-(2-Aminoethyl)-1-(6,8-difluorochroman-3-yl)-1,3-dihydroimidazole-2-thione hydrochloride]
Observations ([2]; 90% RH, 5 weeks (Table 34)): looks dry
Form conversion at high relative humidity ([2]; 90% RH, after 4 days and 5 weeks): converted to Form B
% water ([3]; 43% RH, 5 weeks): 5.52%
Moles of water ([3]; 43% RH, 5 weeks): 1.13 mol
% water ([3]; 75% RH, 5 weeks): 8.74%
Moles of water ([3]; 75% RH, 5 weeks): 1.85 mol
% water ([3]; 90% RH, 5 weeks): 6.47%
Moles of water ([3]; 90% RH, 5 weeks): 1.34 mol
Observations ([4]; 43% RH, 5 weeks (Table 34)): looks dry
Observations ([4]; 75% RH, 5 weeks (Table 34)): looks dry
Change by XRPD on drying ([4]; after 6 days and 2 weeks of drying at approximately 70° C.): did not change
Observations ([4]; ~43% RH, 5 weeks (Table 35)): looks dry
Observations ([4]; ~43% RH, 7 days): looks dry
Weight change ([4]; ~43% RH, 7 days): 1.2 mg
Weight change, % ([4]; ~43% RH, 7 days): 3.4%
Observations ([4]; ~75% RH, 5 weeks (Table 35)): looks dry
Observations ([4]; ~75% RH, 7 days): looks dry
Weight change ([4]; ~75% RH, 7 days): 2.4 mg
Weight change, % ([4]; ~75% RH, 7 days): 6.0%
Observations ([4]; ~90% RH, 5 weeks (Table 35)): looks dry
Weight change ([4]; ~90% RH, 1 day): 2.3 mg
Weight change, % ([4]; ~90% RH, 1 day): 5.6%
Observations ([4]; ~90% RH, 7 days): looks dry
Weight change ([4]; ~90% RH, 7 days): 0.9 mg
Weight change, % ([4]; ~90% RH, 7 days): 2.1%

Cl.NCCc1c[nH]c(=S)n1[C@H]1COc2c(F)cc(F)cc2C1 [Form A, (R)-5-(2-Aminoethyl)-1-(6,8-difluorochroman-3-yl)-1,3-dihydroimidazole-2-thione hydrochloride]
solubility ([1]; 1,4-dioxane:water 99:1, organic solvent or mixture, 1,4-dioxane:water 99:1, read-out: Solubility (approximate)): < 24 mg/mL
solubility ([1]; acetone:water 90:10, organic solvent or mixture, acetone:water 90:10 (9:1), read-out: Solubility (approximate)): > 23 mg/mL
Solubility (approximate) [1, 6]: 1 mg/mL
solubility ([1]; acetonitrile:water 90:10, organic solvent or mixture, acetonitrile:water 90:10 (9:1), read-out: Solubility (approximate)): > 23 mg/mL
solubility ([1]; acetonitrile:water 95:5, organic solvent or mixture, acetonitrile:water 95:5, read-out: Solubility (approximate)): < 23 mg/mL
solubility ([1]; ethanol:water 90:10, organic solvent or mixture, ethanol:water 90:10 (9:1), read-out: Solubility (approximate)): > 21 mg/mL
solubility ([1]; ethanol:water 99:1, organic solvent or mixture, ethanol:water 99:1, read-out: Solubility (approximate)): < 25 mg/mL
Observations ([2]; ~23% RH, 4 weeks): looks dry
Observations ([2]; ~32% RH, 4 weeks): looks dry
% water ([3]; ~9-11% RH, 11 days): 1.70%
Moles of water ([3]; ~9-11% RH, 11 days): 0.33 mol
% water ([3]; ~23% RH, 4 weeks): 2.96%
Moles of water ([3]; ~23% RH, 4 weeks): 0.59 mol
% water ([3]; ~32% RH, 4 weeks): 3.24%
Moles of water ([3]; ~32% RH, 4 weeks): 0.65 mol
Stability at relative humidity ([4]; 31% relative humidity, after two weeks): stable
Stability at relative humidity ([4]; 43% relative humidity, after five days): stable
Form conversion under high laboratory humidity ([4]; typically 43% to 90% relative humidity, within 1 day to 2 weeks): converts to Form B
